Experimental data from patent US6737383B1, “Herbicidal oxadiazolidines” (priority 1999, dated 2004).

Tests used:
corn = test: Test B pre/postemergence corn; format: in vivo, Zea mays; details: for Corn plant response rating: scale of 0 to 10 where 0 is no effect and 10 is complete control
Summary of the method: (§1)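 Test chemicals in a non-phytotoxic solvent mixture with surfactant were sprayed preemergence onto planted seeds and postemergence onto plants 2 to 18 cm tall (1- to 4-leaf stage). After twelve to sixteen days in a greenhouse, injury was visually rated against untreated controls from 0 (no effect) to 10 (complete control).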

soybean = test: Test B pre/postemergence soybean; format: in vivo, Glycine max; details: for Soybean plant response rating: scale of 0 to 10 where 0 is no effect and 10 is complete control
Summary of the method: as §1

morningglory = test: Test B pre/postemergence morningglory; format: in vivo, Ipomoea hederacea; details: for Morningglory plant response rating: scale of 0 to 10 where 0 is no effect and 10 is complete control
Summary of the method: as §1

pigweed = test: Test B pre/postemergence pigweed; format: in vivo, Amaranthus retroflexus; details: for Redroot pigweed plant response rating: scale of 0 to 10 where 0 is no effect and 10 is complete control
Summary of the method: as §1

velvetleaf = test: Test B pre/postemergence velvetleaf; format: in vivo, Abutilon theophrasti; details: for Velvetleaf plant response rating: scale of 0 to 10 where 0 is no effect and 10 is complete control
Summary of the method: as §1

smallflower flatsedge = test: Test B flood test smallflower flatsedge; format: in vivo, Cyperus difformis
Summary of the method: (§2)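 Read-out is a visual response score from 0 (no effect) to 10 (complete control), assigned by comparison with untreated controls. Treatment was applied at the 2-leaf stage, and plants stayed in the greenhouse for twelve to sixteen days before scoring.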

bedstraw = test: Test B pre/postemergence bedstraw; format: in vivo, Galium aparine; details: Rate 500 g/ha, scale of 0 to 10 where 0 is no effect and 10 is complete control
Summary of the method: as §1

wild oat = test: Test B pre/postemergence wild oat; format: in vivo, Avena fatua; details: for Wild oats plant response rating: scale of 0 to 10 where 0 is no effect and 10 is complete control
Summary of the method: as §1

rice = test: Test B flood test rice; format: in vivo, Oryza sativa
Summary of the method: as §2

bamyardgrass = test: Test B flood test barnyardgrass; format: in vivo, Echinochloa crus-galli
Summary of the method: as §2

wheat = test: Test B pre/postemergence wheat; format: in vivo, Triticum aestivum; details: for Wheat plant response rating: scale of 0 to 10 where 0 is no effect and 10 is complete control
Summary of the method: as §1

crabgrass = test: Test B pre/postemergence crabgrass; format: in vivo, Digitaria sanguinalis; details: for Crabgrass plant response rating: scale of 0 to 10 where 0 is no effect and 10 is complete control
Summary of the method: as §1

blackgrass = test: Test B pre/postemergence blackgrass; format: in vivo, Alopecurus myosuroides; details: for Blackgrass plant response rating: scale of 0 to 10 where 0 is no effect and 10 is complete control
Summary of the method: as §1

cocklebur = test: Test B pre/postemergence cocklebur; format: in vivo, Xanthium strumarium; details: for Cocklebur plant response rating: scale of 0 to 10 where 0 is no effect and 10 is complete control
Summary of the method: as §1

surinam grass = test: Test B pre/postemergence surinam grass; format: in vivo, Brachiaria decumbens; details: for B. signalgrass plant response rating: scale of 0 to 10 where 0 is no effect and 10 is complete control
Summary of the method: as §1

giant foxtail = test: Test B pre/postemergence giant foxtail; format: in vivo, Setaria faberii; details: for Giant foxtail plant response rating: scale of 0 to 10 where 0 is no effect and 10 is complete control
Summary of the method: as §1

[1] = Postemergence, Rate 125 g/ha, scale 0 to 10, 0 is no effect, 10 is complete control
[2] = Postemergence, Rate 250 g/ha, scale 0 to 10, 0 is no effect, 10 is complete control
[3] = Preemergence, Rate 62 g/ha, scale 0 to 10 (0 no effect, 10 complete control)
[4] = Rate 62 g/ha, flood test species, Pre-emergence, visual evaluation after twelve to sixteen days
[5] = Rate 125 g/ha, under heading Pre-emergence, flood test species, visual evaluation after twelve to sixteen days
[6] = Rate 250 g/ha, Pre-emergence, flood-test species, scale 0 to 10, 0 is no effect, 10 is complete control
[7] = Rate 500 g/ha, Pre-emergence, flood test species, scale 0 to 10 (0 no effect, 10 complete control)

For `CC(C)N(C(=O)n1oc(=O)n(CCC#N)c1=O)c1ccc(F)cc1` [Compound 388], the “Plant response rating, Corn” value (corn; [1]) was 0, the “Plant response rating, Corn” value (corn; [2]) was 0 and the “Corn plant response rating” value (corn; Postemergence, Rate 500 g/ha) was 0. The “Plant response rating, Corn” value (corn; [3]) was 0, the “Corn plant response rating (0 to 10 scale)” value (corn; Preemergence, Rate 125 g/ha) was 0 and the “Corn plant response rating” value (corn; Preemergence, Rate 500 g/ha) was 9. The “Corn plant response rating” value (corn; Rate 62 g/ha, Postemergence) was 0, the “Plant response rating, Soybean” value (soybean; [1]) was 1 and the “Plant response rating, Soybean” value (soybean; [2]) was 1. For the same compound, the “Soybean plant response rating” value (soybean; Postemergence, Rate 500 g/ha) was 1, the “Plant response rating, Soybean” value (soybean; [3]) was 0 and the “Soybean plant response rating (0 to 10 scale)” value (soybean; Preemergence, Rate 125 g/ha) was 0. The “Soybean plant response rating” value (soybean; Preemergence, Rate 250 g/ha) was 0, the “Soybean plant response rating” value (soybean; Preemergence, Rate 500 g/ha) was 4 and the “Soybean plant response rating” value (soybean; Rate 62 g/ha, Postemergence) was 1. For the same compound, the “Plant response rating, Morningglory” value (morningglory; [1]) was 3, the “Plant response rating, Morningglory” value (morningglory; [2]) was 4 and the “Morningglory plant response rating” value (morningglory; Postemergence, Rate 500 g/ha) was 5. The “Plant response rating, Morningglory” value (morningglory; [3]) was 0, the “Morningglory plant response rating (0 to 10 scale)” value (morningglory; Preemergence, Rate 125 g/ha) was 0 and the “Morningglory plant response rating” value (morningglory; Preemergence, Rate 250 g/ha) was 0. The “Morningglory plant response rating” value (morningglory; Preemergence, Rate 500 g/ha) was 0, the “Morningglory plant response rating” value (morningglory; Rate 62 g/ha, Postemergence) was 1 and the “Plant response rating, Redroot pigweed” value (pigweed; [1]) was 0. The “Plant response rating, Redroot pigweed” value (pigweed; [2]) was 0, the “Redroot pigweed plant response rating” value (pigweed; Postemergence, Rate 500 g/ha) was 3 and the “Plant response rating, Redroot pigweed” value (pigweed; [3]) was 0. The “Redroot pigweed plant response rating (0 to 10 scale)” value (pigweed; Preemergence, Rate 125 g/ha) was 0, the “Redroot pigweed plant response rating” value (pigweed; Preemergence, Rate 250 g/ha) was 6 and the “Redroot pigweed plant response rating” value (pigweed; Preemergence, Rate 500 g/ha) was 10. For the same compound, the “Redroot pigweed plant response rating” value (pigweed; Rate 62 g/ha, Postemergence) was 0, the “Plant response rating, Velvetleaf” value (velvetleaf; [1]) was 2 and the “Plant response rating, Velvetleaf” value (velvetleaf; [2]) was 2. The “Velvetleaf plant response rating” value (velvetleaf; Postemergence, Rate 500 g/ha) was 6, the “Plant response rating, Velvetleaf” value (velvetleaf; [3]) was 0 and the “Velvetleaf plant response rating (0 to 10 scale)” value (velvetleaf; Preemergence, Rate 125 g/ha) was 2. The “Velvetleaf plant response rating” value (velvetleaf; Preemergence, Rate 250 g/ha) was 2, the “Velvetleaf plant response rating” value (velvetleaf; Preemergence, Rate 500 g/ha) was 6 and the “Velvetleaf plant response rating” value (velvetleaf; Rate 62 g/ha, Postemergence) was 0. The “Plant response rating, S. Flatsedge (0 to 10 scale, 0 is no effect, 10 is complete control)” value (smallflower flatsedge; [4]) was 0, the “S. Flatsedge plant response rating (0 to 10 scale, 0 is no effect, 10 is complete control)” value (smallflower flatsedge; [5]) was 0 and the “S. Flatsedge plant response rating” value (smallflower flatsedge; [6]) was 0. For the same compound, the “S. Flatsedge plant response rating” value (smallflower flatsedge; [7]) was 0, the “Bedstraw plant response rating” value (bedstraw; Postemergence) was 6 and the “Bedstraw plant response rating” value (bedstraw; Preemergence) was 7. For the same compound, the “Plant response rating, Wild oats” value (wild oat; [1]) was 0, the “Plant response rating, Wild oats” value (wild oat; [2]) was 0 and the “Wild oats plant response rating” value (wild oat; Postemergence, Rate 500 g/ha) was 6. For the same compound, the “Plant response rating, Wild oats” value (wild oat; [3]) was 3, the “Wild oats plant response rating (0 to 10 scale)” value (wild oat; Preemergence, Rate 125 g/ha) was 6 and the “Wild oats plant response rating” value (wild oat; Preemergence, Rate 250 g/ha) was 10. The “Wild oats plant response rating” value (wild oat; Preemergence, Rate 500 g/ha) was 10, the “Wild oats plant response rating” value (wild oat; Rate 62 g/ha, Postemergence) was 0 and the “Plant response rating, Rice (0 to 10 scale, 0 is no effect, 10 is complete control)” value (rice; [4]) was 0. For the same compound, the “Rice plant response rating (0 to 10 scale, 0 is no effect, 10 is complete control)” value (rice; [5]) was 0, the “Rice plant response rating” value (rice; [6]) was 0 and the “Rice plant response rating” value (rice; [7]) was 0. For the same compound, the “Plant response rating, Barnyardgrass (0 to 10 scale, 0 is no effect, 10 is complete control)” value (bamyardgrass; [4]) was 0, the “Barnyardgrass plant response rating (0 to 10 scale, 0 is no effect, 10 is complete control)” value (bamyardgrass; [5]) was 0 and the “Barnyardgrass plant response rating” value (bamyardgrass; [6]) was 0. The “Barnyardgrass plant response rating” value (bamyardgrass; [7]) was 0, the “Plant response rating, Wheat” value (wheat; [1]) was 0 and the “Plant response rating, Wheat” value (wheat; [2]) was 3. The “Wheat plant response rating” value (wheat; Postemergence, Rate 500 g/ha) was 8, the “Plant response rating, Wheat” value (wheat; [3]) was 0 and the “Wheat plant response rating (0 to 10 scale)” value (wheat; Preemergence, Rate 125 g/ha) was 2. For the same compound, the “Wheat plant response rating” value (wheat; Preemergence, Rate 250 g/ha) was 4, the “Wheat plant response rating” value (wheat; Preemergence, Rate 500 g/ha) was 8 and the “Wheat plant response rating” value (wheat; Rate 62 g/ha, Postemergence) was 0. For the same compound, the “Plant response rating, Crabgrass” value (crabgrass; [1]) was 4, the “Plant response rating, Crabgrass” value (crabgrass; [2]) was 8 and the “Crabgrass plant response rating” value (crabgrass; Postemergence, Rate 500 g/ha) was 9. The “Plant response rating, Crabgrass” value (crabgrass; [3]) was 6, the “Crabgrass plant response rating (0 to 10 scale)” value (crabgrass; Preemergence, Rate 125 g/ha) was 8 and the “Crabgrass plant response rating” value (crabgrass; Preemergence, Rate 250 g/ha) was 10. The “Crabgrass plant response rating” value (crabgrass; Preemergence, Rate 500 g/ha) was 10, the “Crabgrass plant response rating” value (crabgrass; Rate 62 g/ha, Postemergence) was 4 and the “Plant response rating, Blackgrass” value (blackgrass; [1]) was 8. For the same compound, the “Blackgrass plant response rating” value (blackgrass; Postemergence, Rate 500 g/ha) was 10, the “Plant response rating, Blackgrass” value (blackgrass; [3]) was 0 and the “Blackgrass plant response rating (0 to 10 scale)” value (blackgrass; Preemergence, Rate 125 g/ha) was 1. For the same compound, the “Blackgrass plant response rating” value (blackgrass; Preemergence, Rate 250 g/ha) was 5, the “Blackgrass plant response rating” value (blackgrass; Preemergence, Rate 500 g/ha) was 6 and the “Plant response rating, Cocklebur” value (cocklebur; [1]) was 0. The “Plant response rating, Cocklebur” value (cocklebur; [2]) was 0, the “Cocklebur plant response rating” value (cocklebur; Postemergence, Rate 500 g/ha) was 0 and the “Plant response rating, Cocklebur” value (cocklebur; [3]) was 0. For the same compound, the “Cocklebur plant response rating (0 to 10 scale)” value (cocklebur; Preemergence, Rate 125 g/ha) was 0, the “Cocklebur plant response rating” value (cocklebur; Preemergence, Rate 250 g/ha) was 0 and the “Cocklebur plant response rating” value (cocklebur; Preemergence, Rate 500 g/ha) was 0. For the same compound, the “Cocklebur plant response rating” value (cocklebur; Rate 62 g/ha, Postemergence) was 0, the “Plant response rating, B. signalgrass” value (surinam grass; [1]) was 6 and the “Plant response rating, B. signalgrass” value (surinam grass; [2]) was 8. The “B. signalgrass plant response rating” value (surinam grass; Postemergence, Rate 500 g/ha) was 8, the “Plant response rating, B. signalgrass” value (surinam grass; [3]) was 0 and the “B. signalgrass plant response rating (0 to 10 scale, 0 is no effect, 10 is complete control)” value (surinam grass; Preemergence, Rate 125 g/ha) was 2. For the same compound, the “B. signalgrass plant response rating” value (surinam grass; Preemergence, Rate 250 g/ha) was 3, the “B. signalgrass plant response rating” value (surinam grass; Preemergence, Rate 500 g/ha) was 6 and the “B. signalgrass plant response rating” value (surinam grass; Rate 62 g/ha, Postemergence) was 1. The “Plant response rating, Giant foxtail” value (giant foxtail; [1]) was 8, the “Plant response rating, Giant foxtail” value (giant foxtail; [2]) was 8 and the “Giant foxtail plant response rating” value (giant foxtail; Postemergence, Rate 500 g/ha) was 9. The “Plant response rating, Giant foxtail” value (giant foxtail; [3]) was 8, the “Giant foxtail plant response rating (0 to 10 scale)” value (giant foxtail; Preemergence, Rate 125 g/ha) was 8 and the “Giant foxtail plant response rating” value (giant foxtail; Preemergence, Rate 250 g/ha) was 10. For the same compound, the “Giant foxtail plant response rating” value (giant foxtail; Preemergence, Rate 500 g/ha) was 10 and the “Giant foxtail plant response rating” value (giant foxtail; Rate 62 g/ha, Postemergence) was 7.
